According to ChEMBL document CHEMBL1201862, “PubChem BioAssay data set” (2004):
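Briefly, cells in 96-well plates were exposed to five compound concentrations for 48 h, and endpoints were estimated by linear interpolation. The concentration for 50% growth inhibition is given as GI50.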 Activity calls are given as the source filed them. No stated cut-off is given here; in the data, active = GI50 up to about 1.1 µM and inactive = higher.

What was measured:
Experiment in all cases: DTP human tumour cell line panel, 48 h
ACHN = tested on: ACHN
DU-145 = tested on: DU-145
HCT-116 = tested on: HCT-116
Hs-578T = tested on: Hs-578T
K562 = tested on: K562
MDA-MB-231 = tested on: MDA-MB-231
Malme-3M = tested on: Malme-3M
NCI-H460 = tested on: NCI-H460
OVCAR-3 = tested on: OVCAR-3
OVCAR-5 = tested on: OVCAR-5
PC-3 = tested on: PC-3
SK-OV-3 = tested on: SK-OV-3
SW-620 = tested on: SW-620
T47D = tested on: T47D
U-251 = tested on: U-251
CAKI-1 = tested on: CAKI-1
COLO 205 = tested on: COLO 205
NCI-H522 = tested on: NCI-H522
RPMI-8226 = tested on: RPMI-8226

With `CC1(C)CNCC(C)(OCc2ccccc2)C(=O)NC(C)(C)CNCC(C)(OCc2ccccc2)C(=O)N1` (stereo not given) the GI50 (ACHN) was > 10 µM (inactive), the GI50 (DU-145) was > 10 µM (inactive) and the GI50 (HCT-116) was 8.99 µM (inactive). The GI50 (Hs-578T) was 5.09 µM (inactive), the GI50 (K562) was > 10 µM (inactive) and the GI50 (MDA-MB-231) was > 10 µM (inactive). The GI50 (Malme-3M) was > 10 µM (inactive), the GI50 (NCI-H460) was > 10 µM (inactive) and the GI50 (OVCAR-3) was > 10 µM (inactive). For the same molecule, the GI50 (OVCAR-5) was > 10 µM (inactive), the GI50 (PC-3) was > 10 µM (inactive) and the GI50 (SK-OV-3) was > 10 µM (inactive). For the same molecule, the GI50 (SW-620) was > 10 µM (inactive), the GI50 (T47D) was > 10 µM (inactive) and the GI50 (U-251) was > 10 µM (inactive).
With `CC(=N/NC(=S)N(C)C)/C(=N\NC(=S)N(C)C)c1ccccc1` the GI50 (ACHN) was 1.71 µM (inactive), the GI50 (CAKI-1) was 2.53 µM (inactive) and the GI50 (COLO 205) was 1.79 µM (inactive). The GI50 (DU-145) was 5.46 µM (inactive), the GI50 (HCT-116) was 2.93 µM (inactive) and the GI50 (Hs-578T) was 3.11 µM (inactive). The GI50 (K562) was 5.15 µM (inactive), the GI50 (MDA-MB-231) was 3.1 µM (inactive) and the GI50 (Malme-3M) was 1.75 µM (inactive). The GI50 (NCI-H460) was 1 µM (active), the GI50 (NCI-H522) was 1.78 µM (inactive) and the GI50 (OVCAR-3) was 1.76 µM (inactive). For the same molecule, the GI50 (OVCAR-5) was 2.21 µM (inactive), the GI50 (PC-3) was 2 µM (inactive) and the GI50 (RPMI-8226) was 2.74 µM (inactive). For the same molecule, the GI50 (SK-OV-3) was 1.98 µM (inactive), the GI50 (SW-620) was 1.93 µM (inactive) and the GI50 (T47D) was 1.65 µM (inactive). The GI50 (U-251) was 2.8 µM (inactive).
For `CCOC(=O)C(=[N+]=[N-])C(=O)CN1C(=O)c2ccccc2C1=O`, the GI50 (ACHN) was > 100 µM (inactive), the GI50 (CAKI-1) was > 100 µM (inactive) and the GI50 (COLO 205) was > 100 µM (inactive). For the same molecule, the GI50 (DU-145) was > 100 µM (inactive), the GI50 (HCT-116) was > 100 µM (inactive) and the GI50 (Hs-578T) was > 100 µM (inactive). The GI50 (K562) was > 100 µM (inactive), the GI50 (MDA-MB-231) was > 100 µM (inactive) and the GI50 (NCI-H460) was > 100 µM (inactive). For the same molecule, the GI50 (NCI-H522) was > 100 µM (inactive), the GI50 (OVCAR-3) was > 100 µM (inactive) and the GI50 (OVCAR-5) was > 100 µM (inactive). The GI50 (PC-3) was > 100 µM (inactive), the GI50 (SK-OV-3) was > 100 µM (inactive) and the GI50 (SW-620) was > 100 µM (inactive). For the same molecule, the GI50 (T47D) was > 100 µM (inactive) and the GI50 (U-251) was > 100 µM (inactive).
In the case of `O=C1c2ccccc2-c2c1c(-c1ccc(F)cc1)nc1ccc3ccccc3c21`, the GI50 (ACHN) is reported as > 100 µM (inactive), the GI50 (CAKI-1) is reported as > 100 µM (inactive) and the GI50 (COLO 205) is reported as > 100 µM (inactive). For the same molecule, the GI50 (DU-145) was > 100 µM (inactive), the GI50 (HCT-116) was > 100 µM (inactive) and the GI50 (Hs-578T) was > 100 µM (inactive). The GI50 (K562) was > 100 µM (inactive), the GI50 (MDA-MB-231) was > 100 µM (inactive) and the GI50 (Malme-3M) was > 100 µM (inactive). The GI50 (NCI-H460) was > 100 µM (inactive), the GI50 (OVCAR-3) was > 100 µM (inactive) and the GI50 (OVCAR-5) was > 100 µM (inactive). The GI50 (PC-3) was > 100 µM (inactive), the GI50 (RPMI-8226) was > 100 µM (inactive) and the GI50 (SK-OV-3) was > 100 µM (inactive). The GI50 (SW-620) was > 100 µM (inactive), the GI50 (T47D) was > 100 µM (inactive) and the GI50 (U-251) was > 100 µM (inactive).
`Cc1nc2c(=O)n(-c3ccccc3)c3ccccc3c2o1` was tested, and the GI50 (ACHN) was > 100 µM (inactive), the GI50 (CAKI-1) was > 100 µM (inactive) and the GI50 (COLO 205) was > 100 µM (inactive). For the same molecule, the GI50 (DU-145) was > 100 µM (inactive), the GI50 (HCT-116) was > 100 µM (inactive) and the GI50 (Hs-578T) was > 100 µM (inactive). For the same molecule, the GI50 (K562) was > 100 µM (inactive), the GI50 (MDA-MB-231) was > 100 µM (inactive) and the GI50 (Malme-3M) was > 100 µM (inactive). The GI50 (NCI-H460) was > 100 µM (inactive), the GI50 (OVCAR-3) was > 100 µM (inactive) and the GI50 (OVCAR-5) was > 100 µM (inactive). The GI50 (PC-3) was > 100 µM (inactive), the GI50 (RPMI-8226) was > 100 µM (inactive) and the GI50 (SK-OV-3) was > 100 µM (inactive). For the same molecule, the GI50 (SW-620) was > 100 µM (inactive), the GI50 (T47D) was > 100 µM (inactive) and the GI50 (U-251) was > 100 µM (inactive).
For `COC(=O)c1c(O)c2c(c3c1OC(C)(C)CC3)OC(C)(C)CC2`, the GI50 (ACHN) was 18 µM (inactive), the GI50 (CAKI-1) was 21.8 µM (inactive) and the GI50 (COLO 205) was 15 µM (inactive). For the same molecule, the GI50 (DU-145) was 24.5 µM (inactive), the GI50 (HCT-116) was 16.8 µM (inactive) and the GI50 (Hs-578T) was 20.8 µM (inactive). The GI50 (K562) was 25.1 µM (inactive), the GI50 (MDA-MB-231) was 13.7 µM (inactive) and the GI50 (Malme-3M) was 0.824 µM (active). For the same molecule, the GI50 (NCI-H460) was 22.3 µM (inactive), the GI50 (NCI-H522) was 15.8 µM (inactive) and the GI50 (OVCAR-3) was 20 µM (inactive). The GI50 (OVCAR-5) was 18.4 µM (inactive), the GI50 (PC-3) was 17 µM (inactive) and the GI50 (SK-OV-3) was 27.3 µM (inactive). The GI50 (SW-620) was 17.5 µM (inactive), the GI50 (T47D) was 21.8 µM (inactive) and the GI50 (U-251) was 15.2 µM (inactive).
